Here are results for 8 compounds from ChEMBL document CHEMBL1817544, “Carbonic anhydrase inhibitors. Synthesis, molecular structures, and inhibition of the human cytosolic isozymes I and II and transmembrane isozymes IX, XII (cancer-associated) and XIV with novel 3-pyridinesulfonamide derivatives” (Eur J Med Chem, 2011).

The structures appear in SMILES notation.

Test [1] has as its target Carbonic anhydrase 9 (Homo sapiens, UniProt Q16790).
The target of test [2] is Carbonic anhydrase 1 (Homo sapiens, UniProt P00915).
Sequence of Carbonic anhydrase 1 (P00915 whole entry): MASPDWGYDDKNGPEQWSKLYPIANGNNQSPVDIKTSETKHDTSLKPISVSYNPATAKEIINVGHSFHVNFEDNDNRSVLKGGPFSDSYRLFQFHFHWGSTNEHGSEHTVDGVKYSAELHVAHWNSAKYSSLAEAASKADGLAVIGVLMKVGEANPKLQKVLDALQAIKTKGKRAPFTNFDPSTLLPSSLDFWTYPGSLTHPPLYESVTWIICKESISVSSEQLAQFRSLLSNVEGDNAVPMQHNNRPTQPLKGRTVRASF

As a reminder, the Ki is a measure of affinity in units of concentration, obtained from inhibition or displacement. Higher therefore signals weaker binding. In the case of `Cc1cc[n+](-c2ccncc2S(N)(=O)=O)cc1`, in test [1], affinity was put at a Ki of 10.1 nM. In other words, the double-digit nanomolar range.

Compound `NS(=O)(=O)c1cnccc1-[n+]1ccccc1` came in with a Ki in test [1] of 7.6 nM.

`COC1=C(S(N)(=O)=O)C2NS(=O)(=O)c3cnccc3N2C=C1` (centres undefined) displayed a Ki in test [1] of 13.5 nM. Against the preceding compound, the Ki is about 1.8-fold higher.

The compound `CN(C)c1cc[n+](-c2ccncc2S(N)(=O)=O)cc1` gave a Ki in test [1] of 9 nM. This Ki is about 1.5-fold lower than that of the compound before.

In test [1], `NS(=O)(=O)c1cnccc1-n1ccccc1=O` gave a Ki of 10.2 nM. This Ki and that of the compound before are within 1.5-fold of each other.

In the case of `COC1=CC=CC2N1c1ccncc1S(=O)(=O)N2c1ccncc1S(N)(=O)=O` (centres undefined), in test [1], the Ki came to 8.7 nM.

Turning to `NS(=O)(=O)c1cnccc1Oc1ccncc1S(N)(=O)=O`, the Ki in test [2] was 251000 nM; in test [1] it was 9 nM.

Consider `Cc1cccc[n+]1-c1ccncc1S(N)(=O)=O`, for which the Ki in test [1] turned out to be 7.4 nM.
